Results taken from patent publication US20200376005A1, “SHIP INHIBITION TO COMBAT OBESITY” (THE RESEARCH FOUNDATION FOR THE STATE UNIVERSITY OF NEW YORK, priority 2013, published 2020).
Entries after “also recorded” stand apart in the source; their conditions may differ.

Key:
[1] = 3AC treatment of aged C57BL/6 mice, fasting blood glucose and insulin; type: in vivo; settings: after 1 month treatment
Protocol: We noted that mutation of the SHIP1 paralog, SHIP2, also promotes resistance to diet-induced obesity and diabetes^2 We hypothesized then that treatment of adult or aging mice with a pan-SHIP1/2 inhibitor, 3AC^3,4, (SHIPi) might reduce body fat content. This was then tested by pulsatile SHIPi treatment of aged C57BL/6 mice that have begun to accumulate excess body fat and then assessing their body fat content via whole body DEXA imaging. […] This analysis confirmed that small molecule targetting of SHIP1/2 in vivo is a feasible approach to reverse the accumulation of excess body fat and glucose homeostasis during aging.

MIR cell = MIR cell induction in treated mice; settings: in vivo; for concentration inducing a comparable MIR cell increase: mice
Protocol: [Moto bene: DRV-IV-26=3A5AS].
The solubility of 3AC was assessed by calculating the distribution coefficient (CLogD). This calculation estimates the CLogD for 3AC at 7.17 indicating the molecule is very lipophilic. Thus, we have begun to develop novel 3AC analogs with increased aqueous solubility. One of these compounds, 3A5AS, has a CLogD of 3.33. Lipinski's rules (a common measure of small molecule pharmacokinetics) recommend a ClogD of <5 for in vivo applications.

[2] = cited reference 3 of Example 22; cited from earlier work
[3] = 3AC treatment of adult C57BL6/J mice (DEXA, microCT, serum ELISA); type: in vivo; settings: vs vehicle, hydrochloride
[4] = 3-point bending test and microCT of femurs of 3AC treated mice; type: in vivo
Protocol: Mouse femurs were cleaned, wrapped in PBS-soaked gauze and frozen at […]. Femurs were rehydrated in a PBS solution at room temperature for 2 hours before testing. We employed a 3-point-bending test to assay the biomechanical properties of femurs treated with the 3AC inhibitor. Femurs were placed into a testing frame (1250 N Load Cell and a Q Test 1/L, MTS Systems Corp, Eden Prairie, Minn.), pre-loaded with 1 N and then loaded at 1 N/mm until failure. Prior to testing femurs were scanned using microCT to assay the geometric properties.

SHIP1 = target: T1, SHIP1 (Homo sapiens, UniProt Q92835); assay: SHIP1 Malachite Green phosphatase assay; type: biochemical; settings: for SHIP1 inhibitory activity (in words): Malachite Green phosphate release assay, compared with 3AC
T1 sequence (Q92835 1-1189): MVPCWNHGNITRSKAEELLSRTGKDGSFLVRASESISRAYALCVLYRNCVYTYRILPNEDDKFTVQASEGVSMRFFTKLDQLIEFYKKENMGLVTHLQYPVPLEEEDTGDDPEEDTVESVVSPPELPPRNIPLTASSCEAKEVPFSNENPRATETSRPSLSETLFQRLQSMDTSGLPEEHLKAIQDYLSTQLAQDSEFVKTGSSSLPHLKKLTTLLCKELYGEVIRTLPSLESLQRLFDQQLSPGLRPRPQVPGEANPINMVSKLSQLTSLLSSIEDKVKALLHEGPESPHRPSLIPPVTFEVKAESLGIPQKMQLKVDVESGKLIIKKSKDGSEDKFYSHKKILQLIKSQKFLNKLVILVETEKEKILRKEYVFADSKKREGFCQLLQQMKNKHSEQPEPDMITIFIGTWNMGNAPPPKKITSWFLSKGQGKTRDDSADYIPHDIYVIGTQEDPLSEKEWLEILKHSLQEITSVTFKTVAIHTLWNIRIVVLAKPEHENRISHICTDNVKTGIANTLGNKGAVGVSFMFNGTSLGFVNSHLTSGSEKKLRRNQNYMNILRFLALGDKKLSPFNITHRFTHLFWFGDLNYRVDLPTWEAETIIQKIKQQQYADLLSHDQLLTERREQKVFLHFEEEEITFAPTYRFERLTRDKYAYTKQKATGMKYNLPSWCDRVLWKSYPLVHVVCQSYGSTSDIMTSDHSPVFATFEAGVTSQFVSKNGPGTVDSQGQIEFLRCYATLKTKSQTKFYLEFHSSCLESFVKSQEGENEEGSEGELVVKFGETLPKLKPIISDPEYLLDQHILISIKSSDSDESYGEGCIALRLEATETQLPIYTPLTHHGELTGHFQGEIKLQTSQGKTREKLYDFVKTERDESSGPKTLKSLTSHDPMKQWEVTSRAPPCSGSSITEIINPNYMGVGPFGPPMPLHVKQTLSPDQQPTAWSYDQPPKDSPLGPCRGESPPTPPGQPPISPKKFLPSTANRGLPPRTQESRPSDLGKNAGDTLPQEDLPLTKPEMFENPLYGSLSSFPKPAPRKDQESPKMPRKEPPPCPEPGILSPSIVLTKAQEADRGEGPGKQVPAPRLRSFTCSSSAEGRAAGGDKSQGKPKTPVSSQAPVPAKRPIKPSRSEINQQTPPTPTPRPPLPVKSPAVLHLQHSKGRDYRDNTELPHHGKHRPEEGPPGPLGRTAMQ
Protocol: The standard protocol for measuring SHIP inhibition activity was conducted as described in the materials section of Brooks, R., Fuhler, G. M., Iyer, S., Smith, M. J., Park, M. Y., Paraiso, K. H., Engelman, R. W., and Kerr, W. G., “SHIP1 inhibition increases immunoregulatory capacity and triggers apoptosis of hematopoietic cancer cells,” J Immunol 184:3582-3589 (2010), which is incorporated herein by reference, which protocol is described in pertinent part as follows: Malachite Green Assay was obtained from Echelon Biosciences. Malachite Green forms a colored complex with free phosphate liberated by the SHIP1, SHIP2, or PTEN enzyme reactions. The assay was performed according to manufacturer's protocol. The 3a-aminocholestane (3AC) was dissolved in 100% ethanol and used at a final concentration of 1 mM in the Malachite Green assay.

[5] = K118/K189 treatment of DIO mice on high fat diet (Example 21); settings: for % body fat: DIO mice on 60% fat diet, 10 mg/kg 2x/week, 1 month, vs pre-treatment
Excerpt: DIO mice are fed a diet that includes both high quantities of fat as well as sugar. […] DIO mice were purchased from Jackson labs at 12 weeks of age. […] After 1 month on the high fat diet we examined % body fat, (FIG. 28) weight, (FIG. 29) and BMD (FIG. 30).

[6] = Solubility in water / delivery solution; settings: 100% H2O; hydrochloride
[7] = Pulsatile K118 treatment of aged male and female C57BL/6 mice (Example 22); type: in vivo
[8] = K118 treatment of DIO mice on high caloric diet (Example 22); type: in vivo
Protocol: ; As before K118 treatment was performed for one month. After K118 or vehicle treatment we examined weight, (FIG. 35A-C) food intake, (FIG. 35D) gross comparison of fat depots, (FIG. 35E) % body fat, (FIG. 35F) BMD and BMC (FIG. 38A,B). […]. (FIG. 35A,B) The vehicle group retained or increased their body mass during the one month study (FIG. 35C). The weight difference between the K118- and vehicle-treated mice was readily apparent upon visual examination of the mice (FIG. 35C). […]. Obesity is a complex metabolic disorder that predisposes individuals to several co-morbidities, such as type 2 diabetes mellitus. DIO mice are a well-studied model to of diet-related obesity and its leading co-morbidity, type 2 diabetes^12,13. […]. We measured fasting and ad libitum blood glucose and insulin levels and performed the intraperitoneal glucose tolerance test (IGTT) on fasted DIO mice. […]. After 1 month we examined fasting and ad libitum blood glucose, (FIG. 36A-B) fasting and ad libitum insulin, (FIG. 36C-D) the fasting and ad libitum insulin:glucose ratio, (FIG. 36E) and IGTT on fasted DIO mice (FIG. 36F). […]. (FIG. 36A-B). […].

[9] = K118/K189 treatment of 9-12 month old mice (Example 21); settings: aged mice, 10 mg/kg i.p. two times per week, 4 weeks, hydrochloride
Excerpt: After one month we monitored body weight, % body fat and bone mineral density (BMD) in all groups.

immunoregulatory cells = assay: Oral administration of K118 in mice, immunoregulatory cells by flow cytometry
[10] = aging C57BL/6 mice of both sexes, 2x/week, 10 mg/kg, 1 month

## CC(C)CCC[C@@H](C)[C@H]1CC[C@H]2[C@@H]3CCC4C[C@H](N)CC[C@]4(C)[C@H]3CC[C@]12C.Cl (stereo partly drawn) [3AC, 3α-Aminocholestane hydrochloride]
[1]
  fasting blood glucose: significant decrease
  insulin: significant decrease
MIR cell
  concentration inducing a comparable MIR cell increase: 60 µM
[2]
  aqueous solubility: poor aqueous solubility
[3]; DEXA, 25 mg/kg i.p. three times per week, 4, 8 and 16 weeks, 25 mg/kg
  whole-body BMD: significantly reduces; also recorded: Significant decrease
[3]; DEXA, aging mice, 25 mg/kg three times per week, 25 mg/kg
  percent body fat: significantly reduced; also recorded: Significant decrease
[3]; ELISA
  serum OPG: significantly increases; also recorded: increased
  serum RANKL: decreased
[3]; microCT metaphysis, 25 mg/kg i.p. three times per week, 25 mg/kg
  bone mass (Bv/Tv): significantly reduces; also recorded: significantly decreased
[4]; 3-point bend
  energy to fracture: not observed to be significantly different
  energy to peak: not observed to be significantly different
[4]; femurs of 3AC treated mice, 3-point bend, p<0.01
  decrease in the peak load: 15.4%
[4]; femurs of 3AC treated mice, 3-point bend, p<0.04
  decrease in the stiffness: 21.6%
[4]; mid-shaft microCT
  cortical thickness in the femurs: significant decreases

## C[C@@]12CCC[C@H]1[C@@H]1CC[C@H]3C[C@@H](O)CC[C@]3(C)[C@H]1CC2 [K189, 3β-Hydroxy-5α-androstane, reference compound]
SHIP1
  SHIP1 inhibitory activity (in words): significant SHIP1 inhibitory activity is lost; also recorded: does not have significant SHIP1 inhibitory activity
[5]
  % body fat: did not show a significant reduction

## C[C@@]12CCC[C@H]1[C@@H]1CC[C@H]3C[C@@H](N)CC[C@]3(C)[C@H]1CC2.Cl [K118, 3βAmino-5α-androstane hydrochloride]
SHIP1; hydrochloride
  SHIP1 inhibitory activity (in words): comparable SHIP1 inhibitory activity; also recorded: significant SHIP1 inhibitory activity
SHIP1; at 1 mM, tested in triplicate
  inhibition at 1000 µM: 59%
[6]
  solubility in water: water-soluble; also recorded: water soluble
[7]; K118 treated mice
  morbidity or mortality: no significant morbidity or mortality
[7]; aged male and female mice, hydrochloride
  BMD: does not significantly reduce; also recorded: does not affect
[7]; aged mice, one month pulsatile treatment, hydrochloride
  bone mineral content (BMC): normal bone density and mineral content; also recorded: does not affect
[7]; [10]
  body fat: quite effective at reducing
  body mass (weight): quite effective at reducing
[7]; histology, one month pulsatile treatment, hydrochloride
  inflammation / lesions in lungs and small intestine (ileum): lacked any evidence of inflammation; also recorded: no significant lesions
[5]; hydrochloride
  % body fat: significantly lower; also recorded: reverses diet-induced obesity
[5]; DIO mice on high fat diet, 1 month treatment, hydrochloride
  weight gain: did not significantly gain weight; also recorded: prevents diet-induced weight gain
[5]; all K118 treated mice, one month
  body fat in individual mice: reduced body fat
[5]; individual mice of the K118 group, one month
  mice that lost weight: 3 out of 4
[5]; young mice on a high fat diet, hydrochloride
  BMD: did not adversely impact; also recorded: does not cause a significant reduction
[8]; C57BL6 mice on a HCD, hydrochloride
  BMD or BMC: did not adversely impact; also recorded: does not affect
[8]; DIO mice on HCD, 2x/week, 10 mg/kg, one month, vs pre-treatment and vehicle
  body weight: lost a significant amount of body weight
[8]; DIO mice, vs pre-treatment and vehicle
  percent body fat: significantly lower
[8]; DIO mice, vs vehicle
  insulin:glucose ratio: significant decrease
[8]; HCD mice
  leptin production: reduced leptin production
  total cholesterol levels in the serum: reduced total cholesterol levels
[8]; fasted DIO mice, vs vehicle
  glucose tolerance (IGTT): improved glucose tolerance
[8]; fasting and ad libitum, DIO mice, vs pre-treatment and vehicle
  blood glucose levels: significantly reduced
[8]; fasting and ad libitum, DIO mice, vs vehicle
  serum insulin levels: significantly lower
[8]; gross comparison, DIO mice
  fat depot storage: visibly less fat depot storage
[9]
  BMD: does not significantly reduce
  body fat: quite effective at reducing; also recorded: reduces
  body mass (weight): quite effective at reducing; also recorded: reduces
Immunoregulatory cells; delivered orally, 10 mg/kg, preliminary studies
  oral bioavailability: bioavailable
Immunoregulatory cells; oral 10 mg/kg, hydrochloride, 10 mg/kg
  neutrophil numbers: trend for increased; also recorded: Increase
Immunoregulatory cells; spleen and mesenteric lymph node, oral 10 mg/kg
  frequency of natural T regulatory cells (nTreg, CD4+CD25+FoxP3+): Significant increases
Immunoregulatory cells; spleen, oral 10 mg/kg
  frequency of myeloid derived suppressor cells (MDSC, Gr1 and Mac1): significant increase

## C[C@@]12CCC[C@H]1[C@@H]1CC[C@H]3C[C@H](N)CC[C@]3(C)[C@H]1CC2 [3A5AS, 3α-amino-5α-androstane]
SHIP1
  SHIP1 inhibitory activity (in words): equally potent; also recorded: retains equal inhibitory activity
MIR cell
  concentration inducing a comparable MIR cell increase: 15 µM
MIR cell; compared with 3AC
  potency at inducing MIR cell numbers: more potent
